Assay results taken from patent US20240247080A1, “GLP1/GIP/NPY2 RECEPTOR TRIPLE AGONISTS” (Boehringer Ingelheim International GmbH, priority 2022, published 2024).
Read-outs that look alike come from different tables or passages of the source. Starred links: 1 amine or outer side, 2 acyl side, 3 side chain; linkers in the order of their positions; H or OH if unused. Positions of bridges follow the written chain, without caps; N, C: chain ends. Non-standard residues stand in square brackets, D forms with d. Groups on a side chain read outwards from the residue. Chains are numbered I, II in the order given. No end group written: not given here. *: point of attachment. C20 diacid = O=C(O)CCCCCCCCCCCCCCCCCCC(=O)*; C18 diacid = O=C(O)CCCCCCCCCCCCCCCCC(=O)*; γGlu = O=C(O)[C@H](CCC(=O)[*:2])N[*:1]; εLys = N[C@@H](CCCCN[*:1])C(=O)[*:2]; AEEA = NCCOCCOCC(=O)O; Aib = CC(C)(N)C(=O)O

Experiments:
Format in all cases: cell-based
Conditions in all cases: CreLuc reporter gene assay
hGIPR = biological target: T1, hGIPR (Homo sapiens, UniProt P48546); assay: hGIPR CreLuc reporter gene assay in 0.5% and 100% plasma
T1 construct: expressed in transfected cells; host or cells: CHO cells carrying a CRE-luciferase reporter gene
T1 sequence (P48546 22-466): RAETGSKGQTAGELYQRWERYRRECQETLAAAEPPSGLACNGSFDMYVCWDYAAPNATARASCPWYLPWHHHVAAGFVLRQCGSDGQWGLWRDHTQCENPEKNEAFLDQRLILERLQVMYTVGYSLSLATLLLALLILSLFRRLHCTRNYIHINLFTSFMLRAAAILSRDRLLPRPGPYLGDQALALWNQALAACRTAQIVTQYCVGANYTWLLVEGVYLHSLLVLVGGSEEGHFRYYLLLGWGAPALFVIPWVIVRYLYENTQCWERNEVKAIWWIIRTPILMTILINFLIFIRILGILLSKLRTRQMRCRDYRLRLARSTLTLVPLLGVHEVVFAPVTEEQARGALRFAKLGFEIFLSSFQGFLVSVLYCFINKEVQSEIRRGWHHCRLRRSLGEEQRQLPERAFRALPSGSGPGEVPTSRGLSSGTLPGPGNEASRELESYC
Procedure, shortened: (§1)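 Agonist EC50s came from 8-concentration curves over four decades, fitted by non-linear variable-slope regression of CRE-driven luciferase luminescence. Cells were exposed 4 h at 37 °C, in buffer with 0.5% human plasma or in 100% plasma; GIPR was expressed in CHO cells, GLP-1R and NPY2R in HEK cells.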

hNPY2R = biological target: T2, hNPY2R (Homo sapiens, UniProt P49146); assay: hNPY2R CreLuc reporter gene assay in 0.5% and 100% plasma
T2 construct: expressed in transfected cells; host or cells: HEK-293 cells carrying a CRE-luciferase reporter gene
T2 sequence (P49146 1-381): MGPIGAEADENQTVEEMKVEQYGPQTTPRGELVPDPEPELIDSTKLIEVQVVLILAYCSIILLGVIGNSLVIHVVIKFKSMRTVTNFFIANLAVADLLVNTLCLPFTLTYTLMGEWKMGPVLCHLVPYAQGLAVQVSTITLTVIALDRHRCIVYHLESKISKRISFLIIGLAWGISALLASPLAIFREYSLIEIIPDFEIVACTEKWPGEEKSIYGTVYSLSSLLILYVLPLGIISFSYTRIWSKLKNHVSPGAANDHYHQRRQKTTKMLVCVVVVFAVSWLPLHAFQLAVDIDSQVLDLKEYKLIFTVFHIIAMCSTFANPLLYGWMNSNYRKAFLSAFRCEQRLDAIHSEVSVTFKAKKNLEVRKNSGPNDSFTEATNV
Procedure, shortened: as §1

hGLP1R = biological target: T3, hGLP1R (Homo sapiens, UniProt P43220); assay: hGLP1R CreLuc reporter gene assay in 0.5% and 100% plasma
T3 construct: expressed in transfected cells; host or cells: HEK-293 cells carrying a CRE-luciferase reporter gene
T3 sequence (P43220 24-463): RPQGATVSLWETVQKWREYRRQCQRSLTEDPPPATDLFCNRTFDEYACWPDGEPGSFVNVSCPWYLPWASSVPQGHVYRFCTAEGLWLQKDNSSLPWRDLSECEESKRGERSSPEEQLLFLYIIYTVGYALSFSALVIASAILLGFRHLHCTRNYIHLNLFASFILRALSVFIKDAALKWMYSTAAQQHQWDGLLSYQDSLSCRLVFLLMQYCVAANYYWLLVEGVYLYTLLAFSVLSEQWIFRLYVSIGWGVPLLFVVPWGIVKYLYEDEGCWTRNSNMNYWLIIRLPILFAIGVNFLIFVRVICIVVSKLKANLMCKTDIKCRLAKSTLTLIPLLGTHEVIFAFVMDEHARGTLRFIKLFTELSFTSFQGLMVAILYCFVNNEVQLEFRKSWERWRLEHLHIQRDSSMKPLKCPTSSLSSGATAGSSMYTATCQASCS
Procedure, shortened: as §1

[1] = 0.5% human plasma, read-out: hGIPR 0.5% hP
[2] = 0.5% human plasma, read-out: hNPY2R 0.5% hP
[3] = 0.5% human plasma, read-out: hGLP1R 0.5% hP
[4] = 100% human plasma, read-out: hGIPR 100% hP
[5] = 100% human plasma, read-out: hNPY2R 100% hP
[6] = 100% human plasma, read-out: hGLP1R 100% hP

Substance | EC50 (hGIPR; [1]) | EC50 (hNPY2R; [2]) | EC50 (hGLP1R; [3]) | EC50 (hGIPR; [4]) | EC50 (hNPY2R; [5]) | EC50 (hGLP1R; [6])
H-Y[Aib]EGTFTSDYSI[Aib]LEKQAQ[Aib]EFVQWLIK([γGlu-γGlu-γGlu-γGlu-γGlu-γGlu-C20 diacid])GGPSEGASLRHYYNWLTRQRY-NH2 [Compound 185, Y-Aib-E-G-T-F-T-S-D-Y-S-I-Aib-L-E-K-Q-A-Q-Aib-E-F-V-Q-W-L-I-K(1,3)-GGPSEGASLRHYYNWLTRQRY-NH2.C20DA-gGlu-gGlu-gGlu-gGlu-gGlu-gGlu(1,2)] | 0.33 nM | 13.3 nM | 0.4 nM | – | – | –
I: H-Y[Aib]EGTFTSDYSI[Aib]LEKQAQ[Aib]AFVQWLIKGGPSEGASLRHYYNWLTRQRY-NH2 / II: {C18 diacid}-EEEEEE (amide I:28-II:C) [Compound 264, Y-Aib-E-G-T-F-T-S-D-Y-S-I-Aib-L-E-K-Q-A-Q-Aib-A-F-V-Q-W-L-I-K(1,3)-GGPSEGASLRHYYNWLTRQRY-NH2.C18DA-E-E-E-E-E-E(1,2)] | 0.28 nM | 16.7 nM | 0.11 nM | 1.82 nM | – | 3.95 nM
H-Y[Aib]EGTFTSDYSI[Aib]LEKQAQ[Aib]AFVEWLIK([γGlu-γGlu-γGlu-γGlu-γGlu-C18 diacid])GGPSEGASLRHYYNWLTRQRY-NH2 [Compound 292, Y-Aib-E-G-T-F-T-S-D-Y-S-I-Aib-L-E-K-Q-A-Q-Aib-A-F-V-E-W-L-I-K(1,3)-GGPSEGASLRHYYNWLTRQRY-NH2.C18DA-gGlu-gGlu-gGlu-gGlu-gGlu(1,2)] | 0.16 nM | 19.9 nM | 0.13 nM | – | – | –
H-Y[Aib]EGTFTSDYSI[Aib]LEKQAQ[Aib]AFVQWLIK([AEEA-AEEA-γGlu-γGlu-γGlu-γGlu-γGlu-C18 diacid])GGPESGASLRHYYNWLTRQRY-NH2 [Compound 55, Y-Aib-E-G-T-F-T-S-D-Y-S-I-Aib-L-E-K-Q-A-Q-Aib-A-F-V-Q-W-L-I-K(1,3)-GGPESGASLRHYYNWLTRQRY-NH2.C18DA-gGlu-gGlu-glu-gGlu-gGlu-OEG-OEG(1,2)] | 0.12 nM | – | 0.09 nM | – | 53.4 nM | 4.17 nM
H-Y[Aib]EGTFTSDYSI[Aib]LEKQAQ[Aib]AFVEWLIK([εLys-γGlu-γGlu-γGlu-γGlu-γGlu-γGlu-C20 diacid])GGPSSYVSLRHYYNWLTRQRY-NH2 [Compound 40, Y-Aib-E-G-T-F-T-S-D-Y-S-I-Aib-L-E-K-Q-A-Q-Aib-A-F-V-E-W-L-I-K(1,3)-GGPSSYVSLRHYYNWLTRQRY-NH2.C20DA-gGlu-gGlu-gGlu-gGlu-gGlu-gGlu-eLys(1,2)] | 0.48 nM | 11.9 nM | 0.46 nM | 4.36 nM | 26.4 nM | –
H-Y[Aib]EGTFTSDYSI[Aib]LEKQAQ[Aib]AFVEWLIK([εLys-γGlu-γGlu-γGlu-γGlu-γGlu-γGlu-C20 diacid])GGPSSGALLRHYYNWLTRQRY-NH2 [Compound 197, Y-Aib-E-G-T-F-T-S-D-Y-S-I-Aib-L-E-K-Q-A-Q-Aib-A-F-V-E-W-L-I-K(1,3)-GGPSSGALLRHYYNWLTRQRY-NH2.C20DA-gGlu-gGlu-gGlu-gGlu-gGlu-gGlu-eLys(1,2)] | 0.43 nM | 42.6 nM | 0.31 nM | – | 157 nM | –
H-Y[Aib]EGTFTSDYSI[Aib]LEKQAQ[Aib]AFVQWLIK([εLys-γGlu-γGlu-γGlu-γGlu-γGlu-C18 diacid])GGPESGASLRHYYNWLTRQRY-NH2 [Compound 60, Y-Aib-E-G-T-F-T-S-D-Y-S-I-Aib-L-E-K-Q-A-Q-Aib-A-F-V-Q-W-L-I-K(1,3)-GGPESGASLRHYYNWLTRQRY-NH2.C18DA-gGlu-gGlu-gGlu-gGlu-gGlu-eLys(1,2)] | 0.33 nM | – | 0.08 nM | 0.35 nM | 23.1 nM | 1.69 nM
H-Y[Aib]EGTFTSDYSI[Aib]LEKQAQ[Aib]EFVEWLIK([AEEA-AEEA-γGlu-γGlu-γGlu-γGlu-C20 diacid])GGPSSGASLRHYYNWLTRQRY-NH2 [Compound 205, Y-Aib-E-G-T-F-T-S-D-Y-S-I-Aib-L-E-K-Q-A-Q-Aib-E-F-V-E-W-L-I-K(1,3)-GGPSSGASLRHYYNWLTRQRY-NH2.C20DA-gGlu-gGlu-gGlu-gGlu-OEG-OEG(1,2)] | 0.33 nM | 10.6 nM | 0.44 nM | – | – | –
Y[Aib]EGTFTSDYSI[Aib]LEKQAQ[Aib]AFVQWLIK([AEEA-AEEA-γGlu-γGlu-γGlu-γGlu-γGlu-C18 diacid])GGPSSGASLRHYYNWLTRQRY-NH2 [Compound 167, Y-Aib-E-G-T-F-T-S-D-Y-S-I-Aib-L-E-K-Q-A-Q-Aib-A-F-V-Q-W-L-I-K(1,3)-GGPSSGASLRHYYNWLTRQRY-NH2.C18DA-gGlu-gGlu-gGlu-gGlu-gGlu-OEG-OEG(1,2)] | 0.14 nM | 10.5 nM | 0.04 nM | 0.49 nM | 26.5 nM | 0.82 nM

The remaining substances from weak to strong by EC50 (hGIPR; [1]), led by results:

EC50 (hGIPR; [1]) | EC50 (hNPY2R; [2]) | EC50 (hGLP1R; [3]) | EC50 (hGIPR; [4]) | EC50 (hNPY2R; [5]) | EC50 (hGLP1R; [6]) | Substance
0.37 nM | 12.1 nM | 0.48 nM | – | – | – | H-Y[Aib]EGTFTSDYSI[Aib]LEKQAE[Aib]AFVQWLIK([εLys-γGlu-γGlu-γGlu-γGlu-γGlu-C20 diacid])GGPSEGASLRHYYNWLTRQRY-NH2 [Compound 200, Y-Aib-E-G-T-F-T-S-D-Y-S-I-Aib-L-E-K-Q-A-E-Aib-A-F-V-Q-W-L-I-K(1,3)-GGPSEGASLRHYYNWLTRQRY-NH2.C20DA-gGlu-gGlu-gGlu-gGlu-gGlu-eLys(1,2)]
0.32 nM | 13.5 nM | 0.19 nM | – | – | – | H-Y[Aib]EGTFTSDYSI[Aib]LEKQAQ[Aib]AFVEWLIK([εLys-γGlu-γGlu-γGlu-γGlu-γGlu-γGlu-C20 diacid])GGPSTGASLRHYYNWLTRQRY-NH2 [Compound 244, Y-Aib-E-G-T-F-T-S-D-Y-S-I-Aib-L-E-K-Q-A-Q-Aib-A-F-V-E-W-L-I-K(1,3)-GGPSTGASLRHYYNWLTRQRY-NH2.C20DA-gGlu-gGlu-gGlu-gGlu-gGlu-gGlu-eLys(1,2)]
0.29 nM | 87.6 nM | 0.11 nM | 1.86 nM | – | – | H-Y[Aib]EGTFTSDYSI[Aib]LEKQAQ[Aib]AFVEWLIK([εLys-γGlu-γGlu-γGlu-γGlu-γGlu-γGlu-C20 diacid])GGPSSGASLRHYYNL[Aib]TRQRY-NH2 [Compound 79, Y-Aib-E-G-T-F-T-S-D-Y-S-I-Aib-L-E-K-Q-A-Q-Aib-A-F-V-E-W-L-I-K(1,3)-G-G-P-S-S-G-A-S-L-R-H-Y-Y-N-L-Aib-T-R-Q-R-Y-NH2.C20DA-gGlu-gGlu-gGlu-gGlu-gGlu-gGlu-eLys(1,2)]
0.22 nM | 10.8 nM | 0.1 nM | 1.42 nM | 27.2 nM | – | H-Y[Aib]EGTFTSDYSI[Aib]LEKQAQ[Aib]AFVEWLIK([AEEA-AEEA-γGlu-γGlu-γGlu-γGlu-γGlu-C20 diacid])GGPSSGASLRHYYNWLTRQRY-NH2 [Compound 229, Y-Aib-E-G-T-F-T-S-D-Y-S-I-Aib-L-E-K-Q-A-Q-Aib-A-F-V-E-W-L-I-K(1,3)-GGPSSGASLRHYYNWLTRQRY-NH2.C20DA-gGlu-gGlu-gGlu-gGlu-gGlu-OEG-OEG(1,2)]
0.14 nM | 15.3 nM | 0.22 nM | 2.35 nM | 85.7 nM | 8.97 nM | H-Y[Aib]EGTFTSDYSI[Aib]LEKQAQ[Aib]AFVEWLIK([εLys-γGlu-γGlu-γGlu-γGlu-γGlu-γGlu-C20 diacid])GGPSEYESLRHYYNWLTRQRY-NH2 [Compound 93, Y-Aib-E-G-T-F-T-S-D-Y-S-I-Aib-L-E-K-Q-A-Q-Aib-A-F-V-E-W-L-I-K(1,3)-GGPSEYESLRHYYNWLTRQRY-NH2.C20DA-gGlu-gGlu-gGlu-gGlu-gGlu-gGlu-eLys(1,2)]
0.07 nM | 10.2 nM | 0.06 nM | 0.62 nM | 34.6 nM | – | H-Y[Aib]EGTFTSDYSI[Aib]LEKQAQ[Aib]AFVEWLIK([εLys-γGlu-γGlu-γGlu-γGlu-γGlu-γGlu-C20 diacid])GGPSSPQSLRHYYNWLTRQRY-NH2 [Compound 41, Y-Aib-E-G-T-F-T-S-D-Y-S-I-Aib-L-E-K-Q-A-Q-Aib-A-F-V-E-W-L-I-K(1,3)-GGPSSPQSLRHYYNWLTRQRY-NH2.C20DA-gGlu-gGlu-gGlu-gGlu-gGlu-gGlu-eLys(1,2)]
